We go through 3 compounds from patent US6709864B1, “Adipogenic differentiation of human mesenchymal stem cells” (Osiris Therapeutics, Inc., priority 1996, dated 2004).

Experiment [1] has as its system human mesenchymal stem cells. The experiment is described as follows: Nile Red / DAPI fluorescence plate reader assay of adipogenic differentiation of hMSCs. It counts as cell-based. As for the experimental part: These experiments were performed to determine the effect of adding varying concentrations of indomethacin to mesenchymal stem cells in culture to induce adipogenic differentiation. […] We also tested indomethacin under the same conditions however in the absence of methyl isobutylxanthine. The results were compared visually by observing the accumulation of lipid within the cells and by staining the lipid with the fluorescent lipid-soluble dye Nile Red and reading on a fluorescence plate reader as described in Example 6. These experiments were performed to determine the effect of adding varying concentrations of 15-deoxy Δ^12,14 -prostaglandin J2 (15d-PGJ2) to […] in culture to induce adipogenic differentiation. […] We also tested 15d-PGJ2 under the same conditions without methyl isobutylxanthine present. hMSCs were grown in 12 or 24 well tissue culture plates and were treated with adipogenic inducing agents as described above when the cells were post-confluent. After three treatments, the cells were allowed to accumulate lipid for an additional week prior to analysis. The cell layers were rinsed with Dulbecco's modified PBS (D.PBS) and fixed for 30 minutes in 10% Neutral Buffered Formalin. The plates were then rinsed with D. PBS and incubated for 30 minutes with 0.02% Saponin, 0.8 μg/ml DAPI (from an aqueous 2 mg/ml stock) and 1 μg/ml Nile Red (from a 1 mg/ml stock in acetone) in D. PBS. Plates were then rinsed three times with D.PBS.

Experiment [2] has as its system human mesenchymal stem cells. The experiment is described as follows: Adipogenesis assay of hMSCs, lipid vacuoles observed by microscopy / Oil Red O. It counts as cell-based. The note with it: methyl isobutylxanthine alone in normal hMSC media during induction, then 14 days Adipogenic Maintenance Media. As for the experimental part: Human MSCs are isolated from the red bone marrow of volunteer donors as described in U.S. Pat. No.5,486,359. The cells are grown until colonies are well established and at this point the cells are subcultured (1 to 3) or they can be taken to assay for in vitro adipogenesis. For the adipogenesis assay, hMSCs are subcultured into 35 mm tissue culture dishes at 100,000 cells per dish and fed with 2 milliliters normal hMSC Media (Dulbecco's Modified Eagle's Media (DMEM), 10% selected Fetal Bovine Serum (FBS) and antibiotic/antimycotic mixture (IX) (Life Technologies, Inc.)) and cells are maintained at 37° C., 5% CO2 and 90% humidity. The cells are refed with the fresh media every third day and are allowed to multiply and become confluent. The cells are maintained after reaching confluence by refeeding every third day and this time period of post confluence culturing enhances the adipogenic response in the next step (at least out to 14 days). The differentiation into adipocytes is initiated by changing the media to 2 ml of Adipogenic Induction Media (DMEM with 10% fetal bovine serum containing 10 μg/ml insulin (human recombinant, Boehringer Mannheim Corp.), 0.5 mM methyl isobutylxanthine (MIX)(Sigma Chemical Co.), 1 μM dexamethasone (Dex)(Sigma Chemical Co.)). […]

Setting [3] is: 1 μM 15d-PGJ2 with insulin only (I).
[4] abbreviates: 10 μM 15d-PGJ2 with insulin only (I).
Setting [5] is: 50 μM indomethacin in DI (no MIX).
The mark [6] stands for this setting: 50 μM indomethacin with insulin only (I).
Setting [7] is: 100 μM indomethacin in DI (no MIX).
Setting [8] is: 100 μM indomethacin with insulin only (I).
The mark [9] stands for this setting: 200 μM indomethacin in DI (no MIX).
Setting [10] is: 200 μM indomethacin with insulin only (I).

Turning to `CCCCC/C=C/C=C1/C(=O)C=C[C@@H]1C/C=C\CCCC(=O)O` [15d-PGJ2, 15-deoxy Δ^12,14-prostaglandin J2], the “DAPI (cor)” value in experiment [1] (1 μM 15d-PGJ2 in DI (no MIX)) is recorded as 5.99 relative fluorescence intensity; in experiment [1] (1 μM 15d-PGJ2 in MDI), 6.53 relative fluorescence intensity; in experiment [1] (setting [3]) it was 4.98 relative fluorescence intensity; in experiment [1] (10 μM 15d-PGJ2 in MDI) it was 7.22 relative fluorescence intensity; in experiment [1] (setting [4]) it was 5.75 relative fluorescence intensity; in experiment [1] (DI + 10 15d-PGJ2 (no MIX)) it was 5.36 relative fluorescence intensity. In addition, the “Nile red (cor)” value is recorded as 1.19 relative fluorescence intensity in experiment [1] (1 μM 15d-PGJ2 in DI (no MIX)); 13.16 relative fluorescence intensity in experiment [1] (1 μM 15d-PGJ2 in MDI); 0.83 relative fluorescence intensity in experiment [1] (setting [3]); 17.56 relative fluorescence intensity in experiment [1] (10 μM 15d-PGJ2 in MDI); 0.85 relative fluorescence intensity in experiment [1] (setting [4]); 2.57 relative fluorescence intensity in experiment [1] (DI + 10 15d-PGJ2 (no MIX)). Moreover, the “Nile red/DAPI” value in experiment [1] (1 μM 15d-PGJ2 in DI (no MIX)) was determined as 0.20; in experiment [1] (1 μM 15d-PGJ2 in MDI) it was 2.02; in experiment [1] (setting [3]) it was 0.17; in experiment [1] (10 μM 15d-PGJ2 in MDI), 2.43; in experiment [1] (setting [4]) it was 0.15; in experiment [1] (DI + 10 15d-PGJ2 (no MIX)), 0.48. The values for the adipogenic response entry in experiment [1] (15d-PGJ2 1 or 10 μM in MDI induction medium) and in experiment [1] (DI + 15d-PGJ2) were “dose dependent increase” and “weak adipogenic response”, respectively. Further, in experiment [1] (15d-PGJ2 at 10 μM added to MDI medium), the “adipogenic effectiveness compared with indomethacin” value is listed as “nearly as effective as indomethacin”. The effect on adipogenesis entry in experiment [1] (15d-PGJ2 with insulin alone) was “no significant effect”.

`COc1ccc2c(c1)c(CC(=O)O)c(C)n2C(=O)c1ccc(Cl)cc1` [indomethacin]: the “DAPI (cor)” value in experiment [1] (setting [5]) is reported as 6.66 relative fluorescence intensity; in experiment [1] (50 μM indomethacin in MDI) it was 7.8 relative fluorescence intensity; in experiment [1] (setting [6]), 5.12 relative fluorescence intensity; in experiment [1] (setting [7]), 6.77 relative fluorescence intensity; in experiment [1] (100 μM indomethacin in MDI), 7.11 relative fluorescence intensity; in experiment [1] (setting [8]), 5.81 relative fluorescence intensity. The “DAPI (cor)” value is 6.03 relative fluorescence intensity in experiment [1] (setting [9]), 8.72 relative fluorescence intensity in experiment [1] (200 μM indomethacin in MDI) and 5.28 relative fluorescence intensity in experiment [1] (setting [10]). Moreover, the “Nile red (cor)” value is 3.11 relative fluorescence intensity in experiment [1] (setting [5]); 11.72 relative fluorescence intensity in experiment [1] (50 μM indomethacin in MDI); 0.64 relative fluorescence intensity in experiment [1] (setting [6]); 5.35 relative fluorescence intensity in experiment [1] (setting [7]); 16.39 relative fluorescence intensity in experiment [1] (100 μM indomethacin in MDI); 0.74 relative fluorescence intensity in experiment [1] (setting [8]). Moreover, the “Nile red (cor)” value is recorded as 10.08 relative fluorescence intensity in experiment [1] (setting [9]), 20.27 relative fluorescence intensity in experiment [1] (200 μM indomethacin in MDI) and 0.74 relative fluorescence intensity in experiment [1] (setting [10]). Further, the “Nile red/DAPI” value stood at 0.47 in experiment [1] (setting [5]); 1.50 in experiment [1] (50 μM indomethacin in MDI); 0.13 in experiment [1] (setting [6]); 0.79 in experiment [1] (setting [7]); 2.31 in experiment [1] (100 μM indomethacin in MDI); 0.13 in experiment [1] (setting [8]). Further, the “Nile red/DAPI” value in experiment [1] (setting [9]) is reported as 1.67; in experiment [1] (200 μM indomethacin in MDI), 2.32; in experiment [1] (setting [10]), 0.14. Also, the “commitment of hMSCs to adipocyte lineage and intracellular lipid accumulation” value in experiment [1] (indomethacin 50-200 μM in MDI induction medium) was “dose dependent increase”. In addition, the hMSCs becoming adipocytes in experiment [1] (indomethacin at 200 μM in MDI) is roughly 100%. For the same compound, the “Nile Red staining relative to MDI sample alone” value in experiment [1] (indomethacin at 200 μM in MDI, fluorescent plate reader) was “nearly three times that of the MDI sample alone”. Further, in experiment [1] (indomethacin in DMEM with dexamethasone and insulin only (DI)), the “adipogenic differentiation level relative to MDI+indomethacin” value is recorded as “approximately half that of the MDI+indomethacin sample”. In experiment [1] (indomethacin with insulin), the “effect on hMSC adipogenesis” value is listed as “no significant effect”.

For the compound `CC(C)Cn1c(=O)n(C)c(=O)c2[nH]cnc21` [methyl isobutylxanthine, 1-methyl-3-isobutylxanthine], in experiment [2], the “cell phenotype (morphology)” value is on record as “retain a flat fibroblastic phenotype”.
